Values of other authors, collected in article PMC12051030, “Identification of inhibitors of the Salmonella FraB deglycase, a drug target” (FEBS Open Bio, 2025).

What was measured:
Design in all cases: method as in PMID 28145708
Settings in all cases: bioassay records in PubChem; cited from earlier work
[1] = system: dCTP pyrophosphatase 1
[2] = system: deubiquitinase USP28
[3] = system: deubiquitinase USP17
[4] = system: deubiquitinase USP30

SMILES	inhibition of dCTP pyrophosphatase 1 [1]	inhibition of USP28 [2]	inhibition of USP17 [3]	inhibition of USP30 [4]
Fc1ccc(-c2nn3c(-c4ccccn4)nnc3s2)cc1 [3469:N17, 6‐(4‐fluorophenyl)‐3‐pyridin‐2‐yl‐[1,2,4]triazolo[3,4‐b][1,3,4]thiadiazole]	reported to inhibit			
CC(C)Cc1cc(-c2nn3c(-c4ccccc4Cl)nnc3s2)n[nH]1 [3470:A09, 3‐(2‐chlorophenyl)‐6‐[5‐(2‐methylpropyl)‐1H‐pyrazol‐3‐yl]‐[1,2,4]triazolo[3,4‐b][1,3,4]thiadiazole]		found to inhibit	found to inhibit	found to inhibit
